Molecules are shown by their SMILES.

The test system of the first data set is DBA/2 mice. In words: Audiogenic seizure model. Type of data set: in vivo. The settings on record: Mus musculus; DBA/2 mice, oral, dose 5 mg/kg, auditory stimulation 1 hour after administration; read-out: Seizure suppression. A digest of the protocol:
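Male and female DBA/2 mice (3 weeks old, 8/group) dosed orally at 30 mg/kg in 5% gum arabic; 1 h later exposed to 12.6 kHz, 100-110 dB tone for 1 min or until tonic seizure. Maximum seizure score (0–4) recorded; suppression rate graded A (≥90%), B (70–<90%), C (50–<70%).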
As for `Fc1ccc(-c2cnc(Oc3ccccc3)nc2)cn1` [Example 33], the inhibition in vivo at 5 mg/kg was more than 90%.
Same read-out and setting: to `c1ccc(Oc2ncc(-c3ccn4cncc4c3)cn2)cc1` [Example 283] belongs more than 90%.
Consider `O=C1Cc2nc(-c3cnc(Oc4ccccc4)nc3)ccc2N1` [Example 172, 5-(2-Phenoxypyrimidin-5-Yl)-1H-Pyrrolo[3,2-b]Pyridin-2 (3H)-One], for which the inhibition in vivo at 5 mg/kg is more than 90%.
Turning to `c1ccc(Oc2ncc(-c3cccnc3)cn2)cc1` [Example 7, 2-Phenoxy-5-(Pyridin-3-Yl)Pyrimidine], the inhibition in vivo at 5 mg/kg was more than 90%.
Consider `COc1cccc(Oc2ncc(-c3ccc4nccn4c3)cn2)c1` [Example 162], for which the inhibition in vivo at 5 mg/kg is more than 90%.
In the case of `c1ccc(Oc2ncc(-c3ccc4[nH]ccc4c3)cn2)cc1` [Example 262, 5-(2-Phenoxypyrimidin-5-Yl)-1H-Indole], the inhibition in vivo at 5 mg/kg was more than 90%.
In the case of `O=C1Cc2cc(-c3cnc(Oc4ccccc4)nc3)ccc2N1` [Example 259], the inhibition in vivo at 5 mg/kg was more than 90%.

Still in this data set, the particulars now being: Mus musculus; DBA/2 mice, oral, dose 10 mg/kg, auditory stimulation 1 hour after administration; read-out: Seizure suppression.
On to `O=c1ccc(-c2cnc(Oc3cccnc3)nc2)n[nH]1` [Example 113], for which the inhibition in vivo at 10 mg/kg was more than 90%.

Still in this data set, the particulars now being: Mus musculus; DBA/2 mice, oral, dose 30 mg/kg, auditory stimulation 1 hour after administration; read-out: Seizure suppression.
`c1ccc(Oc2ncc(-c3ccncn3)cn2)cc1` [Example 10]: the inhibition in vivo at 30 mg/kg was more than 90%.
For the molecule `FC(F)(F)c1ncc(-c2cnc(Oc3ccccc3)nc2)cn1` [Example 296], the inhibition in vivo at 30 mg/kg is more than 90%.
Take `Cc1cc(Oc2ccccc2)ncc1N1CCC(=O)NC1=O` [Example 325]: the inhibition in vivo at 30 mg/kg was 70 to 90%.
Same read-out and setting: to `O=C1CCN(c2ccc(Oc3ccccn3)cc2)C(=O)N1` [Example 316] belongs more than 90%.
Same read-out and setting: to `O=c1ccc(-c2cnc(Oc3cccc(F)c3)nc2)n[nH]1` [Example 93] belongs more than 90%.
Take `FC(F)(F)c1ccc(-c2cnc(Oc3ccccc3)nc2)cn1` [Example 27]: the inhibition in vivo at 30 mg/kg was more than 90%.
As to `O=C1CCN(c2ccc(Oc3ccccc3)nc2)C(=O)N1` [Example 320], the inhibition in vivo at 30 mg/kg was more than 90%.
On the same count and under the same terms, the value for `O=C1C[C@H](O)CCN1c1cnc(Oc2ccccc2)nc1` [Example 235] was more than 90%; that for `c1ccc(Oc2ncc(-c3cnc4cc[nH]c4c3)cn2)cc1` [Example 137, 6-(2-Phenoxypyrimidin-5-Yl)-1H-Pyrrolo[3,2-b]Pyridine] was more than 90%; that for `COc1cccc(Oc2ccc(N3CCC(=O)NC3=O)cc2)c1` [Example 311] was 70 to 90%.
With `Cn1ncc2ccc(-c3cnc(Oc4ccccc4)nc3)nc21` [Example 275], the inhibition in vivo at 30 mg/kg was more than 90%.

The next data set deals with ICR mice. The data set can be described thus: Rotarod test (motor coordination). Type of data set: in vivo, mouse. The settings on record: oral, dose 5 mg/kg, rotarod 1 hour after administration. The essentials: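 Motor coordination was assessed in male ICR mice (Japan SLC, Inc., 5-6 weeks old, 8 per group). Animals were first trained to stay for 2 minutes on a rotarod turning at a fixed 15 rpm. One hour after oral dosing, each mouse was placed on a rod accelerating from 4 rpm to 40 rpm over 5 minutes, and latency to fall was recorded for up to 200 seconds. Latencies were expressed relative to the mean of the solvent-treated group.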
For the molecule `c1ccc(Oc2ncc(-c3ccn4cncc4c3)cn2)cc1` [Example 283], the Motor dysfunction entry is reported as “A (a coordination disorder of 25% or less)”.
As for `O=C1Cc2nc(-c3cnc(Oc4ccccc4)nc3)ccc2N1` [Example 172, 5-(2-Phenoxypyrimidin-5-Yl)-1H-Pyrrolo[3,2-b]Pyridin-2 (3H)-One], the Motor dysfunction entry is on record as “A (a coordination disorder of 25% or less)”.
For `c1ccc(Oc2ncc(-c3cccnc3)cn2)cc1` [Example 7, 2-Phenoxy-5-(Pyridin-3-Yl)Pyrimidine], the Motor dysfunction result was “A (a coordination disorder of 25% or less)”.
On to `COc1cccc(Oc2ncc(-c3ccc4nccn4c3)cn2)c1` [Example 162], for which the Motor dysfunction entry was “A (a coordination disorder of 25% or less)”.
Take `c1ccc(Oc2ncc(-c3ccc4[nH]ccc4c3)cn2)cc1` [Example 262, 5-(2-Phenoxypyrimidin-5-Yl)-1H-Indole]: the Motor dysfunction result is given as “A (a coordination disorder of 25% or less)”.
Take `O=C1Cc2cc(-c3cnc(Oc4ccccc4)nc3)ccc2N1` [Example 259]: the Motor dysfunction entry is reported as “A (a coordination disorder of 25% or less)”.

Staying with this data set, now noted: oral, dose 10 mg/kg, rotarod 1 hour after administration.
`O=c1ccc(-c2cnc(Oc3cccnc3)nc2)n[nH]1` [Example 113]: the Motor dysfunction entry is “A (a coordination disorder of 25% or less)”.

Still in this data set, the particulars now being: oral, dose 30 mg/kg, rotarod 1 hour after administration.
With `c1ccc(Oc2ncc(-c3ccncn3)cn2)cc1` [Example 10], the Motor dysfunction entry is reported as “A (a coordination disorder of 25% or less)”.
Consider `FC(F)(F)c1ncc(-c2cnc(Oc3ccccc3)nc2)cn1` [Example 296], for which the Motor dysfunction entry is recorded as “A (a coordination disorder of 25% or less)”.
On to `Cc1cc(Oc2ccccc2)ncc1N1CCC(=O)NC1=O` [Example 325], for which the Motor dysfunction result is reported as “A (a coordination disorder of 25% or less)”.
Take `O=C1CCN(c2ccc(Oc3ccccn3)cc2)C(=O)N1` [Example 316]: the Motor dysfunction result is “A (a coordination disorder of 25% or less)”.
`Fc1ccc(-c2cnc(Oc3ccccc3)nc2)cn1` [Example 33]: the Motor dysfunction result was “A (a coordination disorder of 25% or less)”.
For `O=c1ccc(-c2cnc(Oc3cccc(F)c3)nc2)n[nH]1` [Example 93], the Motor dysfunction result is reported as “A (a coordination disorder of 25% or less)”.
With `FC(F)(F)c1ccc(-c2cnc(Oc3ccccc3)nc2)cn1` [Example 27], the Motor dysfunction result is “A (a coordination disorder of 25% or less)”.
In the case of `O=C1CCN(c2ccc(Oc3ccccc3)nc2)C(=O)N1` [Example 320], the Motor dysfunction entry is “B (a coordination disorder of more than 25% and 50% or less)”.
`O=C1C[C@H](O)CCN1c1cnc(Oc2ccccc2)nc1` [Example 235]: the Motor dysfunction result is reported as “A (a coordination disorder of 25% or less)”.
The same measure, in the same setting: to `c1ccc(Oc2ncc(-c3cnc4cc[nH]c4c3)cn2)cc1` [Example 137, 6-(2-Phenoxypyrimidin-5-Yl)-1H-Pyrrolo[3,2-b]Pyridine] belongs “A (a coordination disorder of 25% or less)”.
`COc1cccc(Oc2ccc(N3CCC(=O)NC3=O)cc2)c1` [Example 311]: the Motor dysfunction entry was “A (a coordination disorder of 25% or less)”.
Consider `Cn1ncc2ccc(-c3cnc(Oc4ccccc4)nc3)nc21` [Example 275], for which the Motor dysfunction entry is “A (a coordination disorder of 25% or less)”.

Source of the values: patent US12391674B2, “Heterocyclic compounds for the treatment of epilepsy” (OTSUKA PHARMACEUTICAL CO., LTD., priority 2018, dated 2025).
